# Where “and” joins values, the source holds several entries; their conditions need not be identical. Equal entries are not always repeated. Where two headings read alike, the source gives them in different places.
# Legend:
# [1] = system: A. fumigatus cell membrane potential; assay: Membrane potential determination, DiBAC4(3); format: cell-based, Aspergillus fumigatus; conditions: CAS 0.125 μg/ml, 30 minutes
# Description: Membrane potential determination: […] Biotechnol., 2021, 14, 262-276) with modifications. […] After, the germlings were washed with sterile PBS (140 mM NaCl, 2 mM KCl, 10 mM NaHPO4, 1.8 mM KH2PO4, pH 7.4). The fluorescence was analyzed with excitation wavelength of 450-490 nm, and emission wavelength of 525-550 nm on the Observer Z1 fluorescence microscope (Carl Zeiss) using the 100× with Differential interference contrast (DIC) images. Fluorescent images were captured with an AxioCam camera (Carl Zeiss, Inc.) and processed using the Axio Vision software (version 4.8).
# [2] = system: A. fumigatus clinical isolates; assay: Growth inhibition of clinical isolates by CAS, VOR, BRI and combinations
# [3] = system: C. albicans; assay: MIC for yeasts, CLSI M27-A3; format: cell-based, Candida albicans
# [4] = system: C. neoformans; assay: BRI+CAS against yeasts, colony forming units; conditions: CAS 16 μg/ml alone, 48 hours
# Description: Combination of Brilacidin and caspofungin against yeasts: For measuring the effect of the combination BRI+CAS against yeast fungal pathogens, two methods were used: (i) metabolic activity by XTT-assay and (ii) colony forming units (CFUs). For the first method, C. neoformans, C. albicans, and C. auris 10^4 cells were inoculated in RPMI-1640 supplemented with CAS 0 to 32 μg/ml (for C. neoformans) and 0 to 1 μg/ml (for Candida spp.) or the same concentrations of CAS combined with BRI 0.625 μM (for C. neoformans), BRI 20 μM (for C. albicans), and BRI 10 μM (for C. auris). […] XTT-assays were also used for C. albicans caspofungin resistant strains but with CAS 0.5 μg/ml combined with BRI 5, 10 or 20 μM. The same experimental design was used for the CFUs determination, except that after 48 hours the cells present in the wells were plated on YPD (yeast extract 10g, peptone 20g, dextrose 20g, agar 20 g, water 1000 mL) and the plates were incubated at 30° C. for 24-48 hours for determining the survival percentage.
# [5] = system: chitin synthase genes; assay: Chitin synthase mRNA accumulation (RT-qPCR); conditions: wild-type strain, 1 hour exposure; not in the mutant strains
# Description: RNA-sequencing. cDNA synthesis and RTqPCR: All experiments were carried out in biological triplicates and conidia (10^7) were inoculated in liquid MM and A. fumigatus strains were grown for 16 hours at 37 ° C. and treated or not with different concentrations of BRI, CAS, or BRI+CAS for 1 hour. For total RNA isolation, mycelia were ground in liquid nitrogen and total RNA was extracted using TRIzol (Invitrogen), treated with RQ1 RNase-free DNase I (Promega), and purified using the RNAeasy kit (Qiagen) according to the manufacturer's instructions. RNA was quantified using a NanoDrop and Qubit fluorometer, and analyzed using an Agilent 2100 Bioanalyzer system to assess the integrity of the RNA.
# For RT-qPCR, the RNA was reverse transcribed to cDNA using the ImProm-II reverse transcription system (Promega) according to manufacturer's instructions, and the synthesized cDNA was used for real-time analysis using the SYBR green PCR master mix kit (Applied Biosystems) in the ABI 7500 Fast real-time PCR system (Applied Biosystems, Foster City, CA, USA).
# [6] = system: A. fumigatus biofilms; assay: Biofilm assay (XTT); conditions: Aspergillus fumigatus, read-out: inhibition of biofilm formation
# Description: Biofilm assay: To test the susceptibility of pre-formed A. fumigatus biofilms to
# VOR, CAS and to the combination of CAS+BRI and VOR+BRI, a suspension containing 10^6 conidia per mL of the wild-type strain (Δku80 pyrG^+) was prepared in liquid MM and 100 μL of it was inoculated in each well of a 96-well plate. After 24 hours of incubation at 37° C., 50 μL of fresh MM containing CAS, VOR or the combination of VOR and CAS with BRI was added to the biofilm to reach the final concentration as indicated and incubated for a further 12 hours at 37° C. Wells containing untreated conidia were used as a positive control. After, the metabolic activity of the cells was evaluated by adding 50 μL of an aqueous XTT solution (1 mg/mL of XTT and 125 μM of menadione) to each well. The plate was incubated for additional 1 hour at 37° C., centrifuged (2000 rpm, 5 minutes) and 100 μL of the supernatant was transferred to a flat-bottomed 96-well plate. The absorbance was measured at 450 nm on a plate reader (Synergy HTX Multi-Mode Reader- BioTek Instruments). The XTT assay's were performed in six replicates.
# [7] = system: C. auris; assay: MIC for yeasts, CLSI M27-A3; format: cell-based, Candida auris
# [8] = system: A. fumigatus null mutants; assay: Phosphatase and kinase null mutant screening; format: cell-based, Aspergillus fumigatus; note: key: +: sensitivity similar to wild-type; −: more sensitive than the wild-type
# Description: Phosphatase and kinase null mutant screening: An A. fumigatus phosphatase deletion library encompassing 25 null mutants for phosphatase catalytic subunits (Winkelströter et al., G3 (Bethesda), 2015, 5, 1525-39) was screened for sensitivity to the combination of CAS+BRI. […] In each well a total of 200 μL of liquid MM plus conidia from the different mutants (1×10^4 conidia/mL) was incubated in the presence of BRI (20 μM).
# [9] = system: CrzA:GFP; assay: CrzA:GFP translocation to the nucleus; conditions: CAS 0.07 μg/ml, 30 minutes
# Description: Conidia were germinated in YG medium and grown for 13 hours and then exposed or not to BRI, CAS, and BRI+CAS for 30 minutes.
# [10] = system: A. fumigatus; assay: MIC/MEC, CLSI M38-A2; format: cell-based, Aspergillus fumigatus
# [11] = system: A. fumigatus; assay: Fungal burden, chemotherapeutic murine model of IPA; format: in vivo, BALB/c mice; conditions: CAS 1 mg/kg, 3 days post-infection, vs non-treated mice
# Description: Fungal burden: Inbred female mice (BALB/c strain; body weight, 20-22 g) were housed in vented cages containing five animals. Mice were immunosuppressed with cyclophosphamide (150 mg per kg of body weight), which was administered intraperitoneally on days −4, −1 and 2 prior to and post infection (infection day is “day 0”). Hydrocortisonacetate (200 mg/kg body weight) was injected subcutaneously on day −3. Mice (5 mice per group) were anesthetized by halothane inhalation and infected by intranasal instillation of 20 μL of 1.0×10^6 conidia of A. fumigatus Δku80 pyrG^+ (wild-type) (the viability of the administered inoculum was determined by incubating a serial dilution of the conidia on MM medium, at 37° C.). As a negative control, a group of 5 mice received PBS only. […]
# DNA quantity and quality were assessed using a NanoDrop 2000 spectrophotometer (Thermo Scientific). Quantitative real-time PCRs were performed using 400 ng of total DNA from each sample, and primers to amplify the 18S rRNA region of A. fumigatus and an intronic region of mouse GAPDH (glyceraldehyde-3-phosphate dehydrogenase). Six-point standard curves were calculated using serial dilutions of gDNA from A. fumigatus strain and the uninfected mouse lung. Fungal and mouse DNA quantities were obtained from the threshold cycle (Ct) values from an appropriate standard curve.
compound,measurement,setting,value
"CC[C@H](C)C[C@H](C)CCCCCCCCC(=O)N[C@H]1C[C@@H](O)[C@@H](NCCN)NC(=O)[C@@H]2[C@@H](O)CCN2C(=O)[C@H]([C@H](O)CCN)NC(=O)[C@H]([C@H](O)[C@@H](O)c2ccc(O)cc2)NC(=O)[C@@H]2C[C@@H](O)CN2C(=O)[C@H]([C@@H](C)O)NC1=O [CAS, caspofungin]",fluorescent germlings (membrane depolarization),[1],~25%
same,"growth, CAS alone","[2]; CM7555 CAS^R, CAS 0.25 μg/mL",+
same,"growth, CAS alone","[2]; CM7555 CAS^R, CAS 2 μg/mL",+
same,"growth, CAS alone","[2]; CM7555 CAS^R, CAS 4 μg/mL",+
same,"growth, CAS alone","[2]; DPL1033 CAS^R, CAS 0.25 μg/mL",+
same,"growth, CAS alone","[2]; DPL1033 CAS^R, CAS 2 μg/mL",+
same,"growth, CAS alone","[2]; DPL1033 CAS^R, CAS 4 μg/mL",+
same,"growth, CAS alone","[2]; MD24053 CAS^R, CAS 0.25 μg/mL",+
same,"growth, CAS alone","[2]; MD24053 CAS^R, CAS 2 μg/mL",+
same,"growth, CAS alone","[2]; MD24053 CAS^R, CAS 4 μg/mL",+
same,"growth, CAS alone","[2]; WT, CAS 0.25 μg/mL",+
same,"growth, CAS alone","[2]; WT, CAS 2 μg/mL",+
same,"growth, CAS alone","[2]; WT, CAS 4 μg/mL",+
same,MIC,"[3]; Candida albicans SC5314, read-out: MIC CAS",0.25 µg/mL
same,MIC,"[3]; Candida albicans, read-out: MIC CAS, Candida albicans DPL1006 CAS^R (FKS1 F641L)",2 µg/mL
same,MIC,"[3]; Candida albicans, read-out: MIC CAS, Candida albicans DPL1007 CAS^R (FKS1 F641S)",4 µg/mL
same,MIC,"[3]; Candida albicans, read-out: MIC CAS, Candida albicans DPL1009 CAS^R (FKS1 S645Y)",4 µg/mL
same,MIC,"[3]; Candida albicans, read-out: MIC CAS, Candida albicans DPL1010 CAS^R (FKS1 S645F)",2 µg/mL
same,MIC,"[3]; Candida albicans, read-out: MIC CAS, Candida albicans DPL1011 CAS^R (FKS1 S645F + R1361R/H)",4 µg/mL
same,decrease of survival (CFUs),[4],about 50%
same,chitin synthase gene expression,[5],induce some of these genes
same,inhibition at 0.25 µg/mL,[6],~10%
same,inhibition at 2 µg/mL,[6],~10%
same,MIC CAS,[7]; Candida auris 468/2015,1.0 µg/mL
same,MIC CAS,[7]; Candida auris 469/2015,1.0 µg/mL
same,MIC CAS,[7]; Candida auris 470/2015,1.0 µg/mL
same,MIC CAS,[7]; Candida auris 471/2015,1.0 µg/mL
same,MIC,"[7]; Candidozyma auris, Candida auris 467/2015, read-out: MIC CAS",1 µg/mL
same,"sensitivity, CAS (0.25 μg/mL)",[8]; Afs35 (wild-type; A1159),+
same,"sensitivity, CAS (0.25 μg/mL)",[8]; CEA17 (wild-type; A1160),+
same,"sensitivity, CAS (0.25 μg/mL)",[8]; ΔcalA (Afu5g09360),+
same,"sensitivity, CAS (0.25 μg/mL)",[8]; ΔcdcA (Afu3g12250),+
same,"sensitivity, CAS (0.25 μg/mL)",[8]; ΔdspA (Afu1g13040),+
same,"sensitivity, CAS (0.25 μg/mL)",[8]; ΔdspB (Afu1g03540),+
same,"sensitivity, CAS (0.25 μg/mL)",[8]; ΔdspD (Afu2g02760),+
same,"sensitivity, CAS (0.25 μg/mL)",[8]; ΔltpA (Afu2g01880),+
same,"sensitivity, CAS (0.25 μg/mL)",[8]; ΔmpkA,−
same,"sensitivity, CAS (0.25 μg/mL)",[8]; ΔmpkB,+
same,"sensitivity, CAS (0.25 μg/mL)",[8]; ΔmpkC,+
same,"sensitivity, CAS (0.25 μg/mL)",[8]; ΔnemA (Afu1g09460),+
same,"sensitivity, CAS (0.25 μg/mL)",[8]; ΔpphA (Afu5g12010),+
same,"sensitivity, CAS (0.25 μg/mL)",[8]; ΔppmA (Afu8g04580),+
same,"sensitivity, CAS (0.25 μg/mL)",[8]; ΔppsA (Afu5g11690),+
same,"sensitivity, CAS (0.25 μg/mL)",[8]; ΔpptA (Afu5g06700),+
same,"sensitivity, CAS (0.25 μg/mL)",[8]; ΔppzA (Afu2g03950),+
same,"sensitivity, CAS (0.25 μg/mL)",[8]; ΔpsrA (Afu1g04790),+
same,"sensitivity, CAS (0.25 μg/mL)",[8]; ΔptcA (Afu1g15800),+
same,"sensitivity, CAS (0.25 μg/mL)",[8]; ΔptcB (Afu1g09280),+
same,"sensitivity, CAS (0.25 μg/mL)",[8]; ΔptcD (Afu5g13740),+
same,"sensitivity, CAS (0.25 μg/mL)",[8]; ΔptcE (Afu2g03890),+
same,"sensitivity, CAS (0.25 μg/mL)",[8]; ΔptcF (Afu1g06860),+
same,"sensitivity, CAS (0.25 μg/mL)",[8]; ΔptcG (Afu5g13340),+
same,"sensitivity, CAS (0.25 μg/mL)",[8]; ΔptcH (Afu4g00720),+
same,"sensitivity, CAS (0.25 μg/mL)",[8]; ΔptpB (Afu3g10970),+
same,"sensitivity, CAS (0.25 μg/mL)",[8]; ΔptyA (Afu6g06650),+
same,"sensitivity, CAS (0.25 μg/mL)",[8]; ΔpypA (Afu4g04710),+
same,"sensitivity, CAS (0.25 μg/mL)",[8]; ΔsakA,+
same,"sensitivity, CAS (0.25 μg/mL)","[8]; ΔsakA, ΔmpkC",+
same,"sensitivity, CAS (0.25 μg/mL)",[8]; ΔsitA (Afu6g11470),+
same,"sensitivity, CAS (0.25 μg/mL)",[8]; ΔyphA (Afu4g07000),+
same,germlings with CrzA:GFP in the nuclei,[9],28.3%
same,MEC of CAS,[10]; A. fumigatus,0.2 µg/mL and 0.25 µg/mL
same,MEC CAS,[10]; A. fumigatus CM7555 CAS^R,16 µg/mL
same,MEC CAS,[10]; A. fumigatus DPL1033 CAS^R,16 µg/mL
same,MEC CAS,[10]; A. fumigatus MD24053 CAS^R,16 µg/mL
same,MEC CAS,[10]; A. fumigatus WT,0.25 µg/mL
same,MEC CAS,[10]; A. fumigatus clinical isolates susceptible to CAS,0.25 µg/mL
same,MEC CAS,"[10]; CAS-resistant clinical strains DPL1033, MD24053, CM7555",16 µg/mL
same,reduction of fungal burden in the lungs,[11],approximately 50%
